Reference: patent US10744152B2, “Application of Asarum total polysaccharides in preparation of medicine for treating cough” (THE FIRST AFFILIATED HOSPITAL OF GUANGZHOU MEDICAL …, priority 2014, dated 2020)
Marks after values point to notes of the source that are not given here.

What was measured:
[1] = system: guinea pig models with cough hypersensitivity; experiment: Antitussive effect on guinea pig models with cough hypersensitivity (CS-exposure 14 days, citric acid excitation); format: in vivo; conditions: for Antitussive rate: vs model group
Method: (1) Calculating the cough frequency within 6 min after citric acid excitation, and calculating the antitussive rate of each administration group by using the formula “the antitussive rate=(Nmodel group−Nadministration group)/Nmodel group×100%”.
(2) Calculating the cough latent period of each administration group within 6 min after citric acid excitation;
Experimental materials are same as those of the Embodiment 5. […] Schmidt var. Mandshuricum (Maxim.) Kitag. into pieces, adding 20 times amount of distilled water to soak the cut roots overnight, extracting decoction from boiling water for 6 hours, filtering the decoction with four layers of gauze, repeatedly decocting filter residues twice, 6 hours each time, combining the filtrates, concentrating the filtrate to 1000 ml, precipitating with 80% of ethanol, centrifuging (4500 r/m, 10 min), and conventionally drying the precipitates (washing the precipitates three times with each of ethanol and ether) to obtain coarse Asarum polysaccharides (Li Jingjing, Study on the Separation, Purification and Immunological Activity of Polysaccharide from Asarum heterotropoides, Journal of Changchun Normal University (Natural Science), 2008, 27(1): 54-58)), a group of the Asarum total polysaccharides extract in the Embodiment 1 (800 mg/kg), and a group of the Asarum total polysaccharide extract in the Embodiment 2 (800 mg/kg). The rest of experimental methods are same as the Embodiment 5.

[2] = system: guinea pig models with cough hypersensitivity; experiment: Airway inflammation indicators in BALF (TCC, classification of cells) of guinea pig models with cough hypersensitivity; format: in vivo; conditions: 30 mg/kg, 14 days
From the text: Experimental materials are same as those of the Embodiment 5. […] Schmidt var.

[3] = system: guinea pig models with acute cough; experiment: Acute antitussive effect on cough of guinea pigs induced by citric acid

COc1ccc2c3c1O[C@H]1[C@@H](O)C=C[C@H]4[C@@H](C2)N(C)CC[C@@]341 [Codeine phosphate, codeine phosphate]
Cough frequency ([1]; 30 mg/kg intragastric once a day 14 days, CS-exposure 14 days, within 6 min after citric acid): 5.7 +/− 1.9*** times
Cough latent period ([1]; 30 mg/kg, 14 days, CS-exposure, after citric acid): 199.7 +/− 37.7*** seconds
Antitussive rate ([1]; 30 mg/kg, 14 days): 81.1%
Cough frequency ([1]; Embodiment 8 comparison of different extracts, 30 mg/kg, 14 days): 5.7 +/− 1.9*** times
Antitussive rate ([1]; Embodiment 8 comparison, 30 mg/kg, 14 days): 81.1%
Eos % ([2]; BALF): 3.6 +/− 3.1%
Lym % ([2]; BALF): 5.3 +/− 1.1%
Mac % ([2]; macrophages in BALF): 39.4 +/− 7.1%
Neu % ([2]; neutrophils in BALF): 51.8 +/− 8.4%
Cough frequency ([3]; 30 mg/kg once a day for 3 days, within 6 min after citric acid nebulization): 8.5 +/− 2.6*** times
Cough latent period ([3]; 30 mg/kg, 3 days, after citric acid nebulization): 95.3 ± 18.3 s
Antitussive rate ([3]; 30 mg/kg, 3 days, vs blank control group): 70.5%
